As a reminder, the IC50 is the concentration at which inhibition is half-maximal. Higher therefore signals a need for much substance.

TG2, sequence (P21980 whole entry): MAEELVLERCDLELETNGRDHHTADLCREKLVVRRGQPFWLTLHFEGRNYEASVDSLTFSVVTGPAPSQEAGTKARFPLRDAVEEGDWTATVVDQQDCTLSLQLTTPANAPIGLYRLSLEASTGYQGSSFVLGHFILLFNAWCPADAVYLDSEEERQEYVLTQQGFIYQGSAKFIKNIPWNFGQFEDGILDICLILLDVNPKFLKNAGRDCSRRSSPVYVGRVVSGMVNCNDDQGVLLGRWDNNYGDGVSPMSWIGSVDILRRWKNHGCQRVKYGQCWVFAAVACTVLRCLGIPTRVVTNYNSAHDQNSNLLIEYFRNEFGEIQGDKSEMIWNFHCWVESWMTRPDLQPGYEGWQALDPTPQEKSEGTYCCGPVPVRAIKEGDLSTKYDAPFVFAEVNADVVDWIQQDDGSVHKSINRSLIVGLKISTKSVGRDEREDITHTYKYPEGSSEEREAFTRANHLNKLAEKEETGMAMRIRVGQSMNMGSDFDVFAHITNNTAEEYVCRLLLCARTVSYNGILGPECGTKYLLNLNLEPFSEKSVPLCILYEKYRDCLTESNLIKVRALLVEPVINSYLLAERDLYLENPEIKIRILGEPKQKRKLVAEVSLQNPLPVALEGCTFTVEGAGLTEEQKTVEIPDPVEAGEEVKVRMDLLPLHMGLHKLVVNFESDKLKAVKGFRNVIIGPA

One assay addresses TG2 (Homo sapiens (Human), UniProt P21980). Description: Transglutaminase (TG) Inhibitor Assay. In kind it is biochemical. Conditions: fluorescence of dansyl cadaverine cross-linked into N,N-dimethylated casein; 8 point titration. On the procedure:
Using the fluorescent amine donor, dansyl cadaverine (DSC), and the multiple glutamine bearing amine acceptor N,N-dimethylated casein (NMC), TG activity was measured via the change in fluorescence of cross-linked DSC into NMC over time.
Regarding `CC(C)Cc1cccc2c1nc(Cn1cccc(NC(=O)[C@H](CC/C=C/C(N)=O)NC(=O)OCc3ccccc3)c1=O)n2C(=O)OC(C)(C)C` [Compound 3], the IC50 is < 500 nM.

For the compound `[2H]C([2H])(C/C=C/C(=O)N(C)C)C(OC(=O)N(C)C)C(=O)Nc1cccn(Cc2nc3cc(F)ccc3[nH]2)c1=O` (stereo not drawn) [Compound 54], the IC50 fell in the range of 500 to 5000 nM.

`[2H]C([2H])(C/C=C/C(=O)N(C)C)C(OC(=O)N(C)C)C(=O)Nc1cccn(Cc2nc3cc(F)ccc3[nH]2)c1=O` (stereo not drawn) [Compound 55] gave an IC50 of 500 to 5000 nM.

Turning to `CN(C)C(=O)/C=C/CC[C@H](OC(=O)N(C)C)C(=O)Nc1ccnn(Cc2nc3cc(F)cc(CC(C)(C)C)c3[nH]2)c1=O` [Compound 85, [(E,1S)-6-(dimethylamino)-1-[[2-[[7-(2,2-dimethylpropyl)-5-fluoro-1H-benzimidazol-2-yl]methyl]-3-oxo-pyridazin-4-yl]carbamoyl]-6-oxo-hex-4-enyl]N,N-dimethylcarbamate], the IC50 was < 500 nM.

With `COC(=O)N[C@@H](CC/C=C/C(=O)N(C)C)C(=O)Nc1cncn(Cc2nc3c(CCC(F)(F)F)cc(F)cc3n2C(=O)OC(C)(C)C)c1=O` [Compound 102, tert-butyl 2-[[5-[[(E,2S)-7-(dimethylamino)-2-(methoxycarbonylamino)-7-oxo-hept-5-enoyl]amino]-6-oxo-pyrimidin-1-yl]methyl]-6-fluoro-4-(3,3,3-trifluoropropyl)benzimidazole-1-carboxylate], the IC50 was < 500 nM.

`COC(=O)N[C@@H](CC/C=C/C(=O)N(C)C)C(=O)Nc1cncn(Cc2nc3cc(F)cc(CCC(F)(F)F)c3[nH]2)c1=O` [Compound 103, methyl N-[(E,1S)-6-(dimethylamino)-1-[[1-[[5-fluoro-7-(3,3,3-trifluoropropyl)-1H-benzimidazol-2-yl]methyl]-6-oxo-pyrimidin-5-yl]carbamoyl]-6-oxo-hex-4-enyl]carbamate]: the IC50 is < 500 nM.

For the compound `COC(=O)N(C)[C@@H](CC/C=C/C(=O)N(C)C)C(=O)Nc1cccn(Cc2nc3cccc(OCc4ccc(F)cc4F)c3[nH]2)c1=O` [Compound 115, methyl (S,E)-methyl(1-((1-((7-((2,4-difluorobenzyl)oxy)-1H-benzo[d]imidazol-2-yl)methyl)-2-oxo-1,2-dihydropyridin-3-yl)amino)-7-(dimethylamino)-1,7-dioxohept-5-en-2-yl)carbamate], the IC50 is < 500 nM.

`COC(=O)N[C@@H](CC/C=C/C(=O)N(C)C)C(=O)Nc1cccn(Cc2nc3c(CC(C(F)(F)F)C(F)(F)F)cccc3n2C(=O)OC(C)(C)C)c1=O` [Compound 148, (S,E)-tert-butyl 2-((3-(7-(dimethylamino)-2-((methoxycarbonyl)amino)-7-oxohept-5-enamido)-2-oxopyridin-1(2H)-yl)methyl)-4-(3,3,3-trifluoro-2-(trifluoromethyl)propyl)-1H-benzo[d]imidazole-1-carboxylate] showed an IC50 of 500 to 5000 nM.

`CN(C)C(=O)/C=C/CC[C@H](NC(=O)OC(C)(C)C)C(=O)Nc1cccn(Cc2nc3cccc(C(O)C(C)(C)C)c3[nH]2)c1=O` (stereo partly drawn) [Compound 160, tert-butyl ((2S,E)-7-(dimethylamino)-1-((1-((7-(1-hydroxy-2,2-dimethylpropyl)-1H-benzo[d]imidazol-2-yl)methyl)-2-oxo-1,2-dihydropyridin-3-yl)amino)-1,7-dioxohept-5-en-2-yl)carbamate]: the half-maximal inhibitory concentration (IC50) was < 500 nM.

On to `COC(=O)N[C@@H](CC/C=C/C(=O)N(C)C)C(=O)Nc1cncn(Cc2nc3cc(F)ccc3n2C)c1=O` [Compound 174, methyl N-[(E,1S)-6-(dimethylamino)-1-[[1-[(5-fluoro-1-methyl-benzimidazol-2-yl)methyl]-6-oxo-pyrimidin-5-yl]carbamoyl]-6-oxo-hex-4-enyl]carbamate], for which the IC50 was 5000 to 100000 nM.

As for `CN(C)C(=O)/C=C/CC[C@H](OC(=O)N(C)C)C(=O)Nc1cccn(Cc2nc3ccc(F)cc3n2Cc2ccccc2)c1=O` [Compound 202, [(E,1S)-1-[[1-[(1-benzyl-6-fluoro-benzimidazol-2-yl)methyl]-2-oxo-3-pyridyl]carbamoyl]-6-(dimethylamino)-6-oxo-hex-4-enyl]N,N-dimethylcarbamate], the IC50 was 500 to 5000 nM.

`CN(C)C(=O)/C=C/CC[C@H](OC(=O)N(C)C)C(=O)Nc1cccn(Cc2nc3cc(F)ccc3n2Cc2ccc(F)cc2)c1=O` [Compound 207] yielded an IC50 of 500 to 5000 nM.

In the case of `CN(C)C(=O)/C=C/CC[C@H](OC(=O)N(C)C)C(=O)Nc1cccn(Cc2nc3ccc(F)cc3n2Cc2ccc(F)cc2)c1=O` [Compound 208], the IC50 fell in the range of 500 to 5000 nM.

`[2H]C([2H])(C/C=C/C(=O)N(C)C)C(OC(=O)N(C)C)C(=O)Nc1cccn(Cc2cc3cc(F)ccc3n2C(=O)OC(C)(C)C)c1=O` (stereo not drawn) [Compound 224]: the IC50 is < 500 nM.

As to `[2H]C([2H])(C/C=C/C(=O)N(C)C)C(OC(=O)N(C)C)C(=O)Nc1cccn(Cc2cc3cccc(CC(C)C)c3n2C(=O)OC(C)(C)C)c1=O` (stereo not drawn) [Compound 247], the half-maximal inhibitory concentration (IC50) was 500 to 5000 nM.

In turn, `[2H]C([2H])(C/C=C/C(=O)N(C)C)C(OC(=O)N(C)C)C(=O)Nc1cccn(Cc2cc3cc(F)cc(OCc4ccc(F)cc4F)c3n2C(=O)OC(C)(C)C)c1=O` (stereo not drawn) [Compound 303] yielded an IC50 of 5000 to 100000 nM.

`[2H]C([2H])(C/C=C/C(=O)N(C)C)C(OC(=O)N(C)C)C(=O)Nc1cccn(Cc2cc3cc(F)cc(CC(C)C)c3n2C(=O)OC(C)(C)C)c1=O` (stereo not drawn) [Compound 307] had an IC50 of 500 to 5000 nM.

As to `[2H]C([2H])(C/C=C/C(=O)N(C)C)C(OC(=O)N(C)C)C(=O)Nc1cccn(Cc2cc3cc(F)cc(CC(C)C)c3[nH]2)c1=O` (stereo not drawn) [Compound 308], the IC50 is < 500 nM.

For `CC(C)Cn1c(Cn2ccnc(NC(=O)[C@H](CC/C=C/C(=O)N(C)C)OC(=O)N(C)C)c2=O)cc2cc(F)ccc21` [Compound 344, [(E,1S)-6-(dimethylamino)-1-[[4-[(5-fluoro-1-isobutyl-indol-2-yl)methyl]-3-oxo-pyrazin-2-yl]carbamoyl]-6-oxo-hex-4-enyl]N,Ndimethylcarbamate], the IC50 is < 500 nM.

Regarding `COC(=O)N[C@@H](CC/C=C/C(=O)N(C)C)C(=O)Nc1cccn(Cc2cc3ncnc(CC(C)C)c3[nH]2)c1=O` [Compound 459, methyl N-[(E,1S)-6-(dimethylamino)-1-[[1-[(4-isobutyl-5H-pyrrolo[3,2-d]pyrimidin-6-yl)methyl]-2-oxo-3-pyridyl]carbamoyl]-6-oxo-hex-4-enyl]carbamate], the IC50 is < 500 nM.

On to `COC(=O)N[C@@H](CC/C=C/C(=O)N(C)C)C(=O)Nc1cccn(Cc2cc3c(F)cnc(C=C(C)C)c3[nH]2)c1=O` [Compound 501], for which the IC50 is < 500 nM.

On to `COC(=O)N[C@@H](CC/C=C/C(=O)N(C)C)C(=O)Nc1cccn(Cc2nc3c(N(C)C)nc(C)nc3[nH]2)c1=O` [Compound 504], for which the IC50 was 500 to 5000 nM.

In the case of `COC(=O)N[C@@H](CC/C=C/C(=O)N(C)C)C(=O)Nc1cccn(Cc2nc3c(CC(C)C)c(F)cnc3[nH]2)c1=O` [Compound 525], the IC50 was < 500 nM.

As for `COC(=O)N[C@@H](CC/C=C/C(=O)N(C)C)C(=O)Nc1cc(F)c(C)n(Cc2nc3c(F)cnc(CC(C)C)c3[nH]2)c1=O` [Compound 583], the IC50 is < 500 nM.

As for `COC(=O)N[C@@H](CC/C=C/C(=O)N(C)C)C(=O)Nc1cccn(Cc2cc3ncc(F)c(CC4CCC4)c3[nH]2)c1=O` [Compound 585], the IC50 is < 500 nM.

For the compound `COCc1ccc(NC(=O)[C@H](CC/C=C/C(=O)N(C)C)NC(=O)OC)c(=O)n1Cc1nc2c(F)cnc(CC(C)C)c2[nH]1` [Compound 599], the IC50 is < 500 nM.

Staying with this assay, now noted: fluorescence of dansyl cadaverine cross-linked into N,N-dimethylated casein; 8 point titration; listed as 101.
With `COCc1ccc(NC(=O)[C@H](CC/C=C/C(=O)N(C)C)NC(=O)OC)c(=O)n1Cc1nc2c(F)cnc(CC(C)C)c2[nH]1` [Compound 599], the IC50 fell in the range of 500 to 5000 nM.

For the origin of these results see patent US11548892B1, “Transglutaminase 2 (TG2) inhibitors” (Sitari Pharma, Inc., priority 2018, dated 2023).
